{"source": "patent US8017128B2", "about": "“Cosmetic active ingredient composed of arginine ferrulate and a microalgae extract and its uses” (priority 2006, dated 2011)", "key": {"[1]": {"test_system": "thioredoxin reductase (TrxR)", "conditions": "donor", "experimental": "A volume corresponding to 50 μg of proteins of each cell extract is incubated with a mixture of HEPES, 80 mM pH 7.5, 0.9 mg/ml of NADPH, EDTA 6 mM, 2 mg/ml of insulin and 10 μM of Trx of E. coli, at 37° C. for 20 minutes in a final volume of 120 μL. The reaction is stopped by the addition of 500 μL of DTNB (dithio-bis-nitrobenzoic acid) (0.4 mg/ml) in guanidine hydrochloride 6 M/Tris-Cl 0.2 M (pH 8.0). A control sample containing everything except the Trx is incubated and treated in the same way as each sample.\nThe absorbance at 412 nm is measured and the value of the control subtracted from the value of the corresponding absorbance of the sample.\nA standard curve is prepared using TrxR from purified calf thymus, with a defined specific activity."}, "[2]": {"test_system": "thioredoxin", "conditions": "donor; NAC (10 mM) alone"}, "[3]": {"test_system": "glycated proteins", "experiment": "Reduction in glycated proteins in treated cells", "type": "cell-based"}}}
{"compound": "C=CC=O", "note": "[Acrolein]", "values": [{"measurement": "TrxR activity, % change vs control", "setting": "[1]; Acrolein 25 μM alone", "value": "−37", "unit": "%"}, {"measurement": "TrxR Activity", "setting": "[1]; Acrolein 25 μM in the culture medium, alone", "value": "130.8 ± 11.4 ng of TrxR/mg of total proteins"}]}
{"compound": "CC(=O)N[C@@H](CS)C(=O)O", "note": "[NAC, N-Acetyl-cysteine]", "values": [{"measurement": "Thioredoxin Level", "setting": "[2]", "value": "59.8 ± 8.1 ng of Trx/mg of total proteins"}, {"measurement": "Thioredoxin level, % change vs control", "setting": "[2]", "value": "−32", "unit": "%"}]}
{"compound": "COc1cc(/C=C/C(=O)O)ccc1O", "note": "[arginine ferulate]", "values": [{"measurement": "content required to inhibit 50% of the formation of glycated proteins in the cells", "setting": "[3]", "value": "0.005%-0.02%"}]}
